{"source": "patent US8637274B2", "about": "“Inhibitor for the formation of gamma-secretase complex” (Kowa Company, Ltd., priority 2003, dated 2014)", "type_in_all_cases": "cell-based", "key": {"[1]": {"tested_on": "cholesterol in lipid rafts of SH-SY5Y cell", "assay": "Quantification of cholesterol content in sucrose density-gradient cell membrane fractions (lipid rafts = fraction 3)", "conditions": "for cholesterol content in lipid rafts (fraction 3): 5% LPDS, 48 hours, FIG. 4", "experimental": "(§1) SH-SY5Y cell line (Invitrogen) was subcultured in a complete medium (DMEM (Sigma) containing 10% of fetal bovine serum (Sigma), 100 units/mL of penicillin and […] of streptomycin) using a dish of 15 cm diameter at 37° C.\n(§2) The SH-SY5Y cell was cultured in a dish of 15 cm diameter, and the cells reached confluent growth in the dish was washed with phosphate buffered saline (PBS). The cells were detached from the dish using cell scraper and recovered in PBS, then centrifuged at 9807 m/s^2 for 5 minutes. The precipitated cells were suspended in buffer R (20 mM Tris-HCl pH 7.6, 150 mM NaCl, 1 mM EDTA) containing 200 μL of a mixture of 2% CHAPSO and proteases (Complete protease mixture) (Roche). Solubilization of the cell was performed by means of leaving the cell suspension for standing on an ice bath for 20 minutes. After solubilizing, 800 μL of the buffer R containing 56.25% sucrose was added to make the final concentration to be 45% sucrose and 0.4% CHAPSO, and placed in the bottom of centrifuging tube. Further, 3 mL of the buffer R containing 35% sucrose and 1 mL of the buffer R containing 5% sucrose were overlaid sequentially on top of the layers. After centrifugation at 980700 m/s^2 (32000 rpm) for 16 hours at 4° C. using Beckman ultracentrifuge equipped with SW55 rotor, each 500 μL aliquot was withdrawn from top as fractions.\n(§3) The SH-SY5Y cell was cultured in a dish of 15 cm diameter, and the cells reached confluent growth in the dish were washed with PBS. After that, methyl-β-cyclodextrin (Sigma) dissolved in DMEM to make the final concentration to be 0 to 2 mM was added to the dish, and cultured at 37° C. for another 30 minutes. These cells were processed and fractionated according to the method described in the Reference Example 2, and subjected to the immunoblotting.\nThe SH-SY5Y cell was cultured in a dish of 15 cm diameter and the cells of just before arriving confluent growth in a dish were washed with PBS. […]"}, "[2]": {"tested_on": "active complex of γ-secretase (nicastrin, presenilin-1, presenilin-2, Pen-2) in lipid rafts of SH-SY5Y cell", "assay": "Immunoblotting of γ-secretase constituents in sucrose density-gradient cell membrane fractions", "conditions": "for constituents of γ-secretase (nicastrin, presenilin-1, presenilin-2) in lipid rafts fraction (fraction 3): FIG. 3A-3C", "experimental": "as §1, §2\n(§4) After SDS-polyacrylamide gel electrophoresis was carried out for each fraction obtained in the Reference Example 2, immunoblotting was performed. The antibodies used were nicastrin N-19 (Santa Cruz) as a nicastrin recognizing antibody, anti-G1L3 as an antibody recognizing C-terminal region of presenilin 1, anti-G2L as an antibody recognizing C-terminal region of presenilin 2, anti-PNT3 as a PEN-2 recognizing antibody, Flotillin-1 (BD Sciences) as a flotillin-1 recognizing antibody, and Calnexin (BD Biosciences) as a calnexin recognizing antibody.\nAfter reacting at room temperature for 1 hour or at 4° C. overnight, the gels were washed twice with TBS-Tween (20 mM Tris-buffered saline, pH 7.4, 0.05% Tween 20). Then, the gels were reacted with HRP-conjugated anti mouse IgG antibody, anti goat IgG antibody, or anti rabbit IgG antibody each for 1 hour, and washed with TBS-Tween. And then, an X-ray film was exposed to the chemiluminescence generated using SuperSignal West Dura (Pierce).\nas §3\nThe SH-SY5Y cell was cultured in a dish of 15 cm diameter and the cells of just before arriving confluent growth in a dish were washed with PBS. After that, the cells were cultured in DMEM containing 5% of LPDS, 250 μM of mevalonic acid and 50 μM of compactin or 5 μM of pitavastatin as a cholesterol synthesis inhibitor for 48 hours. These cells were processed and fractionated according to the method described in the Reference Example 2, and subjected to the immunoblotting."}, "[3]": {"tested_on": "flotillin-1 (marker protein of lipid rafts), SH-SY5Y cell", "assay": "Immunoblotting of lipid raft marker flotillin-1 in sucrose density-gradient cell membrane fractions", "conditions": "for flotillin in the lipid rafts fraction (structure of lipid rafts): 48 hours, FIG. 3D", "experimental": "as §1, §2, §4\nAfter reacting at room temperature for 1 hour or at 4° C. overnight, the gels were washed twice with TBS-Tween (20 mM Tris-buffered saline, pH 7.4, 0.05% Tween 20). […]"}, "[4]": {"conditions": "50 μM compactin plus 250 μM mevalonic acid"}, "[5]": {"conditions": "50 μM compactin plus 250 μM mevalonic acid, 48 hours"}, "[6]": {"conditions": "5 μM pitavastatin plus 250 μM mevalonic acid"}, "[7]": {"conditions": "5 μM pitavastatin plus 250 μM mevalonic acid, 48 hours"}}, "data": [{"compound": "CC[C@H](C)C(=O)O[C@H]1CCC=C2C=C[C@H](C)[C@H](CC[C@@H]3C[C@@H](O)CC(=O)O3)[C@H]21", "note": "[compactin, (+)-(1S,3R,7S,8S.8aR)-1,2,3,7,8,8a-hexahydro-7-methyl-8-[2-[(2R,4R)-tetrahydro-4-hydroxy-6-oxo-2H-pyran-2-yl]ethyl]-1-naphthyl (S)-2-methylbutyrate]", "values": [{"measurement": "cholesterol content in lipid rafts (fraction 3)", "setting": "[1]; [4]", "result": "decreased"}, {"measurement": "formation of an active complex of γ-secretase in lipid rafts", "setting": "[2]; [5]", "result": "inhibited the formation of an active complex of γ-secretase in lipid rafts"}, {"measurement": "constituents of γ-secretase (nicastrin, presenilin-1, presenilin-2) in lipid rafts fraction (fraction 3)", "setting": "[2]; [5]", "result": "disappeared from lipid rafts fraction"}, {"measurement": "flotillin in the lipid rafts fraction (structure of lipid rafts)", "setting": "[3]; [4]", "result": "still remained in the lipid rafts fraction"}]}, {"compound": "O=C(O)C[C@H](O)C[C@H](O)/C=C/c1c(C2CC2)nc2ccccc2c1-c1ccc(F)cc1", "note": "[pitavastatin, (3R,5S,6E)-7-[2-cyclopropyl-4-(4-fluorophenyl)-3-quinolyl]-3,5-dihydroxy-6-heptenoic acid]", "values": [{"measurement": "cholesterol content in lipid rafts (fraction 3)", "setting": "[1]; [6]", "result": "decreased"}, {"measurement": "formation of an active complex of γ-secretase in lipid rafts", "setting": "[2]; [7]", "result": "inhibited the formation of an active complex of γ-secretase in lipid rafts"}, {"measurement": "constituents of γ-secretase (nicastrin, presenilin-1, presenilin-2) in lipid rafts fraction (fraction 3)", "setting": "[2]; [7]", "result": "disappeared from lipid rafts fraction"}, {"measurement": "flotillin in the lipid rafts fraction (structure of lipid rafts)", "setting": "[3]; [6]", "result": "still remained in the lipid rafts fraction"}]}, {"compound": "methyl-β-cyclodextrin", "values": [{"measurement": "cholesterol in lipid rafts (fraction 3)", "setting": "[1]; methyl-β-cyclodextrin 0 to 2 mM, 30 minutes, 37° C., FIG. 2", "result": "removed from lipid rafts"}, {"measurement": "formation of an active complex of γ-secretase in lipid rafts", "setting": "[2]; methyl-β-cyclodextrin 0 to 2 mM, 30 minutes", "result": "inhibited the formation of an active complex of γ-secretase in lipid rafts"}, {"measurement": "constituents of γ-secretase (nicastrin, presenilin-1, presenilin-2, Pen-2) in lipid rafts fraction (fraction 3)", "setting": "[2]; methyl-β-cyclodextrin 0 to 2 mM, 30 minutes, FIG. 1A-1D", "result": "disappeared from lipid rafts fraction"}, {"measurement": "distribution of flotillin (marker protein of lipid rafts) among fractions / raft structure", "setting": "[3]; methyl-β-cyclodextrin 0 to 2 mM, 30 minutes, FIG. 1E", "result": "moved from the original position of the lipid rafts of fraction 3 to fraction 9 and 10"}]}]}
